Measured values published in ChEMBL document CHEMBL4507303, “Data for DCP probe TP-004” (2021).

Key:
[1] = target: Serine/threonine-protein kinase 32C (Homo sapiens) (UniProt Q86UX6); conditions: Compound concentration 1000.0 nM
[2] = target: Serine/threonine-protein kinase ULK2 (Homo sapiens) (UniProt Q8IYT8); conditions: Compound concentration 1000.0 nM
[3] = target: Protein kinase C eta type (Homo sapiens) (UniProt P24723); conditions: Compound concentration 1000.0 nM
[4] = target: Sodium-dependent dopamine transporter (Homo sapiens, UniProt Q01959); conditions: Compound concentration 10.0 uM
Chain of Sodium-dependent dopamine transporter (Q01959 whole entry): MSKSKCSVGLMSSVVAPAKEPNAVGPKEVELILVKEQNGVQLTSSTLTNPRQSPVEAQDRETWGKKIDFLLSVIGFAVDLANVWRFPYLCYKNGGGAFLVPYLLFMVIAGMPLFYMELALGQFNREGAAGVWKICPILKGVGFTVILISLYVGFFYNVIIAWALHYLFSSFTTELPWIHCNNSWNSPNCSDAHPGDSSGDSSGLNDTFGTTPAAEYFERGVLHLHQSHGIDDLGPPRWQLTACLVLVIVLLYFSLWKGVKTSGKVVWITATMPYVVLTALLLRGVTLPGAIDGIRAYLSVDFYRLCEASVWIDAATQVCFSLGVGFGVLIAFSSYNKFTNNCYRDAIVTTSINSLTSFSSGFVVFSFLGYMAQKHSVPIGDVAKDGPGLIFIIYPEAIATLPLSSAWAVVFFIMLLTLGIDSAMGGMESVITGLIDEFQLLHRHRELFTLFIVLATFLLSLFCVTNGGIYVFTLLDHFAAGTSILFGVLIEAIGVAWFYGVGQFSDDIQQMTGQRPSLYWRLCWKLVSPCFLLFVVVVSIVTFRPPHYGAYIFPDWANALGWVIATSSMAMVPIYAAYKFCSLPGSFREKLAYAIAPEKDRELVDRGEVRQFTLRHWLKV

[5] = target: Leucine-rich repeat serine/threonine-protein kinase 2 (Homo sapiens) (UniProt Q5S007); conditions: Compound concentration 1000.0 nM
[6] = target: Activin receptor type-1-like (Homo sapiens) (UniProt P37023); conditions: Compound concentration 1000.0 nM
[7] = target: Muscarinic acetylcholine receptor M3 (Homo sapiens) (UniProt P20309); conditions: Compound concentration 10.0 uM
[8] = target: Discoidin domain-containing receptor 2 (Homo sapiens) (UniProt Q16832); conditions: Compound concentration 1000.0 nM
[9] = target: Ephrin type-A receptor 1 (Homo sapiens) (UniProt P21709); conditions: Compound concentration 1000.0 nM
[10] = target: Mitogen-activated protein kinase kinase kinase kinase 1 (Homo sapiens) (UniProt Q92918); conditions: Compound concentration 1000.0 nM
[11] = target: Ephrin type-B receptor 1 (Homo sapiens) (UniProt P54762); conditions: Compound concentration 1000.0 nM
[12] = species: Rattus norvegicus; conditions: Compound concentration 10.0 uM
[13] = target: Tyrosine-protein kinase JAK1 (Homo sapiens) (UniProt P23458); conditions: Compound concentration 1000.0 nM
[14] = target: Serine/threonine-protein kinase VRK2 (Homo sapiens) (UniProt Q86Y07); conditions: Compound concentration 1000.0 nM
[15] = target: Phosphatidylinositol 4-phosphate 5-kinase type-1 alpha (Homo sapiens) (UniProt Q99755); conditions: Compound concentration 1000.0 nM
[16] = target: Glycogen synthase kinase-3 alpha (Homo sapiens) (UniProt P49840); conditions: Compound concentration 1000.0 nM
[17] = tested on: Leucine-rich repeat serine/threonine-protein kinase 2 (Homo sapiens), Q5S007 [G2019S]; conditions: Compound concentration 1000.0 nM
[18] = target: Maternal embryonic leucine zipper kinase (Homo sapiens) (UniProt Q14680); conditions: Compound concentration 1000.0 nM
Chain of Maternal embryonic leucine zipper kinase (Homo sapiens) (Q14680 whole entry, looked up): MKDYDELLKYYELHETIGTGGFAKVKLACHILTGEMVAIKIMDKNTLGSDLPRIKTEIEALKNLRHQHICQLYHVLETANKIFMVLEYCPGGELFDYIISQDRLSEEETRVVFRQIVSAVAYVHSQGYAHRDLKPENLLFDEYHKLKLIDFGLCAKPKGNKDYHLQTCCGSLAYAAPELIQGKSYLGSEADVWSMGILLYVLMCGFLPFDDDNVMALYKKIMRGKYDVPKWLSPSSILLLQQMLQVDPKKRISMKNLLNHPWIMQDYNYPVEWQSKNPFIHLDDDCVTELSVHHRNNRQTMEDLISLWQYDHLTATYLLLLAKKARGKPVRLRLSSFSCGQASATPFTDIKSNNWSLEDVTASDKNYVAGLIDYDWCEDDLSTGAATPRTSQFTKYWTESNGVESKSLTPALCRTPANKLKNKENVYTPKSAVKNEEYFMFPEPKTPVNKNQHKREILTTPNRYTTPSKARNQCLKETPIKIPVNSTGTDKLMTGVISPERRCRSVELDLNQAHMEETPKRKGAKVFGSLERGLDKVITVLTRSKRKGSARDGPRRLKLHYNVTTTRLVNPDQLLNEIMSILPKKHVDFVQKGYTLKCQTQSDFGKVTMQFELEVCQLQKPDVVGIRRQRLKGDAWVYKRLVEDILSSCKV

[19] = tested on: ALK tyrosine kinase receptor (Homo sapiens), Q9UM73 [L1196M]; conditions: Compound concentration 1000.0 nM
[20] = target: Dual specificity protein kinase CLK1 (Homo sapiens) (UniProt P49759); conditions: Compound concentration 1000.0 nM
[21] = target: Tyrosine-protein kinase Tec (Homo sapiens) (UniProt P42680); conditions: Compound concentration 1000.0 nM
[22] = target: STE20/SPS1-related proline-alanine-rich protein kinase (Homo sapiens) (UniProt Q9UEW8); conditions: Compound concentration 1000.0 nM
[23] = target: MAP kinase-interacting serine/threonine-protein kinase 2 (Homo sapiens) (UniProt Q9HBH9); conditions: Compound concentration 1000.0 nM
Chain of MAP kinase-interacting serine/threonine-protein kinase 2 (Homo sapiens) (Q9HBH9 whole entry, looked up): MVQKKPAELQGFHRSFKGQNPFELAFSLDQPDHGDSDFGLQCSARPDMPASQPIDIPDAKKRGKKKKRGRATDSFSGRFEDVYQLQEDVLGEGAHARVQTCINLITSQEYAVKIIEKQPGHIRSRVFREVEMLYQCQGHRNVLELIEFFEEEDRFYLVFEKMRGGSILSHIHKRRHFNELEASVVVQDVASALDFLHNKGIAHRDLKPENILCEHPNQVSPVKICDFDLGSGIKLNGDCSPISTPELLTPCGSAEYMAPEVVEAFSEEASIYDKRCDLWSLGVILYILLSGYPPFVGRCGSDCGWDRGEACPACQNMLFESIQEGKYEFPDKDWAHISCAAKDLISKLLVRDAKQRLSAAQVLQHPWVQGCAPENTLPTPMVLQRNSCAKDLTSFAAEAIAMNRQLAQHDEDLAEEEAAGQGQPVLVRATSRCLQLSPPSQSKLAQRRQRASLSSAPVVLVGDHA

[24] = target: Serine/threonine-protein kinase 10 (Homo sapiens) (UniProt O94804); conditions: Compound concentration 1000.0 nM
[25] = target: Cyclin-dependent kinase-like 2 (Homo sapiens) (UniProt Q92772); conditions: Compound concentration 1000.0 nM
[26] = target: Ephrin type-B receptor 2 (Homo sapiens) (UniProt P29323); conditions: Compound concentration 1000.0 nM
[27] = target: RAC-alpha serine/threonine-protein kinase (Homo sapiens) (UniProt P31749); conditions: Compound concentration 1000.0 nM
Chain of RAC-alpha serine/threonine-protein kinase (Homo sapiens) (P31749 whole entry): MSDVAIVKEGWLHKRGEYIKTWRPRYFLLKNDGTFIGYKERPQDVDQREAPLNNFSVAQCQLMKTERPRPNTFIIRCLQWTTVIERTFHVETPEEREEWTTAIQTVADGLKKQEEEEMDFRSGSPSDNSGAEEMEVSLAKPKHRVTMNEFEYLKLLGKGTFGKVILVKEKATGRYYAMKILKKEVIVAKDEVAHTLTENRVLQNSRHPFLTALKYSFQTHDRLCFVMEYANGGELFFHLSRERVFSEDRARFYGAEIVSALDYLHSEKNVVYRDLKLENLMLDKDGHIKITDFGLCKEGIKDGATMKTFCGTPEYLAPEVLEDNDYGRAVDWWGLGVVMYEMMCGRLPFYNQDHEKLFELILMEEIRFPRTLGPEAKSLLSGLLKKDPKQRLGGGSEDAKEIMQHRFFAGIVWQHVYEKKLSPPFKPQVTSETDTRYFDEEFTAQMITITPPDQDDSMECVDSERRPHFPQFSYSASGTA

[28] = tested on: Tyrosine-protein kinase ABL1 (Homo sapiens), P00519 [Q252H]; conditions: Compound concentration 1000.0 nM
[29] = target: Tyrosine-protein kinase Lck (Homo sapiens) (UniProt P06239); conditions: Compound concentration 1000.0 nM
[30] = target: Activin receptor type-2A (Homo sapiens) (UniProt P27037); conditions: Compound concentration 1000.0 nM
Chain of Activin receptor type-2A (Homo sapiens) (P27037 whole entry): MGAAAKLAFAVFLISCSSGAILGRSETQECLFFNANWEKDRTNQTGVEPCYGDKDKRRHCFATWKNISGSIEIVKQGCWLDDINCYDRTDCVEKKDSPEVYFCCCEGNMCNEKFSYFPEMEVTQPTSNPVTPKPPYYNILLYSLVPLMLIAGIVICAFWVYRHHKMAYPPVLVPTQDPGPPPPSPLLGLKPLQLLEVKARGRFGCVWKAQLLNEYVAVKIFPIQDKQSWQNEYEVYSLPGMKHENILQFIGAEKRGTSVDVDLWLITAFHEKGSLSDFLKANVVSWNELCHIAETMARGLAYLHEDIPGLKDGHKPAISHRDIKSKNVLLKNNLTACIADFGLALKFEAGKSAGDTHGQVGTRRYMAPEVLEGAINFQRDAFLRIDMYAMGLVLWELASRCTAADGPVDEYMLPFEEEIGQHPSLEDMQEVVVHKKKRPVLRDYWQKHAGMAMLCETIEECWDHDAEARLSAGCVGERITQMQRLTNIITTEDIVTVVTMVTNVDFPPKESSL

[31] = target: Mitogen-activated protein kinase 15 (Homo sapiens) (UniProt Q8TD08); conditions: Compound concentration 1000.0 nM
[32] = target: Ribosomal protein S6 kinase alpha-4 (Homo sapiens) (UniProt O75676); conditions: Compound concentration 1000.0 nM
[33] = target: Casein kinase I isoform gamma-1 (Homo sapiens) (UniProt Q9HCP0); conditions: Compound concentration 1000.0 nM
Chain of Casein kinase I isoform gamma-1 (Homo sapiens) (Q9HCP0 whole entry, looked up, canonical isoform): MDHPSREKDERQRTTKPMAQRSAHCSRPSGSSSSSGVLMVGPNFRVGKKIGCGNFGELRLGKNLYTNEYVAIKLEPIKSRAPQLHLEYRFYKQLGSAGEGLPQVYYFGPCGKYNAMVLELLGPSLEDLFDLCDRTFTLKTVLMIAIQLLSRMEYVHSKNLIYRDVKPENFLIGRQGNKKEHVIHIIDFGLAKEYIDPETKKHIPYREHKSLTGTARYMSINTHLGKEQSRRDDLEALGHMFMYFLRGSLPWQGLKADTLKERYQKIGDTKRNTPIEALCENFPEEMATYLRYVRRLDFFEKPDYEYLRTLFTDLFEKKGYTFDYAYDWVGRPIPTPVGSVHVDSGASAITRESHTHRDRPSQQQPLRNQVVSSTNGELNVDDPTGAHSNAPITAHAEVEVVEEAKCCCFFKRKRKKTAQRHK

[34] = target: cGMP-dependent protein kinase 2 (Homo sapiens) (UniProt Q13237); conditions: Compound concentration 1000.0 nM
[35] = target: Serine/threonine-protein kinase Nek10 (Homo sapiens) (UniProt Q6ZWH5); conditions: Compound concentration 1000.0 nM
[36] = target: Serine/threonine-protein kinase 3 (Homo sapiens) (UniProt Q13188); conditions: Compound concentration 1000.0 nM
[37] = target: GABA-A receptor; anion channel (Rattus norvegicus) (UniProt O09028+P15431+P18506+P18508+P19969+P20236+P23574+P23576+P28471+P28473+P30191+P62813+P63079+P63138+Q91ZM7+Q9ES14); conditions: Compound concentration 10.0 uM
[38] = target: Serine/threonine-protein kinase Chk2 (Homo sapiens) (UniProt O96017); conditions: Compound concentration 1000.0 nM
[39] = target: Mitogen-activated protein kinase kinase kinase 13 (Homo sapiens) (UniProt O43283); conditions: Compound concentration 1000.0 nM
Chain of Mitogen-activated protein kinase kinase kinase 13 (Homo sapiens) (O43283 whole entry): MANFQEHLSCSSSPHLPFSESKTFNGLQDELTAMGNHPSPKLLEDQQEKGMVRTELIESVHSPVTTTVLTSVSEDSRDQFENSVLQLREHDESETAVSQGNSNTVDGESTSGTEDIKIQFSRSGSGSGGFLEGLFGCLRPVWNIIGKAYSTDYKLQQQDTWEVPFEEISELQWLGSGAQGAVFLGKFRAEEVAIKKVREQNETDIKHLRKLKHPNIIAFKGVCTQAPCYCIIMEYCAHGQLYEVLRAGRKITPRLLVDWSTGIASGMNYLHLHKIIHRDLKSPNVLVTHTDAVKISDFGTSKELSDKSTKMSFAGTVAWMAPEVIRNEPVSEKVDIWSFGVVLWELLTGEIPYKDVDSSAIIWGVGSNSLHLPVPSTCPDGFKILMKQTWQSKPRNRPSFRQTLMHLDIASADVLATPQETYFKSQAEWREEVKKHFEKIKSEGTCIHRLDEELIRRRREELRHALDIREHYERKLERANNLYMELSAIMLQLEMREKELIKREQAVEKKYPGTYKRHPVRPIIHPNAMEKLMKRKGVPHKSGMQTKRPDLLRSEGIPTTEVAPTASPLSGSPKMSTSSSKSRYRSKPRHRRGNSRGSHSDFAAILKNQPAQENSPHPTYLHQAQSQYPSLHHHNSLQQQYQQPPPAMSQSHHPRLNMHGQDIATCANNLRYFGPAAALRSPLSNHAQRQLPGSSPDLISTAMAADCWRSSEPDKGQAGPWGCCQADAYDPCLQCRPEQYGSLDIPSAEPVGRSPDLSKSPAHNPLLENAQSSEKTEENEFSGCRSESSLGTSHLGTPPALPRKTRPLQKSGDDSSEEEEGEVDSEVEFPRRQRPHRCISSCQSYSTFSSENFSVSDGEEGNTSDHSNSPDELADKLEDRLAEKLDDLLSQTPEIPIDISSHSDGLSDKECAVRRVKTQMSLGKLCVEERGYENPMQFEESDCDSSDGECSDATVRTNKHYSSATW

[40] = tested on: Epidermal growth factor receptor (Homo sapiens), P00533 [G719C]; conditions: Compound concentration 1000.0 nM
[41] = target: Serine/threonine-protein kinase PAK 2 (Homo sapiens) (UniProt Q13177); conditions: Compound concentration 1000.0 nM
[42] = target: Myosin light chain kinase family member 4 (Homo sapiens) (UniProt Q86YV6); conditions: Compound concentration 1000.0 nM
Chain of Myosin light chain kinase family member 4 (Homo sapiens) (Q86YV6 whole entry): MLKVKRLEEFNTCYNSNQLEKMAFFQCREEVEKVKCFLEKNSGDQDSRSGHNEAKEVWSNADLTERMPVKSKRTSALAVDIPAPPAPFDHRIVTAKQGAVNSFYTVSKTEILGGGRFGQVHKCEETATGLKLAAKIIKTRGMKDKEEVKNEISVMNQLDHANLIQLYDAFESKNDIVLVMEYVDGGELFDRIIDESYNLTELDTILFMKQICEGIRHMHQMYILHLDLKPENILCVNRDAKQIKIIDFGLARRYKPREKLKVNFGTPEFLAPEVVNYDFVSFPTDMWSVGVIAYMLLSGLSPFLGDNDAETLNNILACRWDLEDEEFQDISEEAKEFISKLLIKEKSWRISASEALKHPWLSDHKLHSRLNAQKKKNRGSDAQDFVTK

[43] = target: Serine/threonine-protein kinase ULK1 (Homo sapiens) (UniProt O75385); conditions: Compound concentration 1000.0 nM
[44] = target: MAP/microtubule affinity-regulating kinase 3 (Homo sapiens) (UniProt P27448); conditions: Compound concentration 1000.0 nM

Chain of Serine/threonine-protein kinase 32C (Homo sapiens) (Q86UX6 whole entry): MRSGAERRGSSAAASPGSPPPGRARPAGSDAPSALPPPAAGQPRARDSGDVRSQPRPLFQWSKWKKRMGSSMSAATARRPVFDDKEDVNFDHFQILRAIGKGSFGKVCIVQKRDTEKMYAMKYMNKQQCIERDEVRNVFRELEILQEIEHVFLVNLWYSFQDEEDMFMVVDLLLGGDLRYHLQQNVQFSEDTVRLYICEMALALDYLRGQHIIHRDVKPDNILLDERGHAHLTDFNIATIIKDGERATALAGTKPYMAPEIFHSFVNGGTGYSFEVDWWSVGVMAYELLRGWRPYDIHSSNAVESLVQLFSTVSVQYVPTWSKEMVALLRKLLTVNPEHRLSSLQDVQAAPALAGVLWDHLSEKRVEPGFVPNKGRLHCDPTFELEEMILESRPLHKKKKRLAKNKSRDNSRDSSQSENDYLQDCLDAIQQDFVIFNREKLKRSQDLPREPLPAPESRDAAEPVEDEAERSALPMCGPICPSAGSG

Cc1nc(N2CC[C@@H](O)C2)ncc1-c1cc(C(F)(F)F)cc2[nH]ncc12 [TP-004]
active: inhibition [4] 75.2% | inhibition [37] 54.3%
inactive: residual activity [1] 86% | residual activity [2] 66% | residual activity [3] 94% | residual activity [5] 58% | residual activity [6] 100% | inhibition [7] -2.13% | residual activity [8] 75% | residual activity [9] 85% | residual activity [10] 100% | residual activity [11] 73% | inhibition [12] 1.57% | residual activity [13] 100% | residual activity [14] 86% | residual activity [15] 86% | residual activity [16] 54% | residual activity [17] 67% | residual activity [18] 100% | residual activity [19] 98% | residual activity [20] 87% | residual activity [21] 84% | residual activity [22] 99% | residual activity [23] 76% | residual activity [24] 100% | residual activity [25] 100% | residual activity [26] 100% | residual activity [27] 100% | residual activity [28] 91% | residual activity [29] 100% | residual activity [30] 73% | residual activity [31] 86% | residual activity [32] 68% | residual activity [33] 78% | residual activity [34] 100% | residual activity [35] 96% | residual activity [36] 80% | residual activity [38] 96% | residual activity [39] 56% | residual activity [40] 100% | residual activity [41] 100% | residual activity [42] 100% | residual activity [43] 76% | residual activity [44] 100%
